Measurements as given in patent publication US7807676B2, “Diketo-Piperazine and Piperidine derivatives as antiviral agents” (priority 2006, dated 2010).
Structures can show the parent of a compound that is named as a salt.

Test system: HIV-1 single-round infectious reporter virus
Assay: Single-round infectious HIV-1 luciferase reporter virus infection of HeLa CD4 cells (antiviral EC50)
Assay type: cell-based
Conditions: Human immunodeficiency virus 1, HeLa, read-out: EC50 Group from Table 3
Method: • Virus production—Human embryonic Kidney cell line, 293T, was propagated in Dulbecco's Modified Eagle Medium (Invitrogen, Carlsbad, Calif.) containing 10% fetal Bovine serum (FBS, Sigma, St. Louis, Mo.). • Virus infection—Human epithelial cell line, HeLa, expressing the HIV-1 receptor CD4 was propagated in Dulbecco's Modified Eagle Medium (Invitrogen, Carlsbad, Calif.) containing 10% fetal Bovine serum (FBS, Sigma, St. Louis, Mo.) and supplemented with 0.2 mg/mL Geneticin (Invitrogen, Carlsbad, Calif.). Virus-Single-round infectious reporter virus was produced by co-transfecting human embryonic Kidney 293 cells with an HIV-1 envelope DNA expression vector and a proviral cDNA containing an envelope deletion mutation and the luciferase reporter gene inserted in place of HIV-1 nef sequences (Chen et al, Ref. 41). Transfections were performed using lipofectAMINE PLUS reagent as described by the manufacturer (Invitrogen, Carlsbad, Calif.). Experiment • 1. HeLa CD4 cells were plated in 96 well plates at a cell density of 1×10^4 cells per well in 100 μl Dulbecco's Modified Eagle Medium containing 10% fetal Bovine serum and incubated overnight. • 2. Compound was added in a 2 μl dimethylsulfoxide solution, so that the final assay concentration would be ≦10 μM. • 3. 100 μl of single-round infectious reporter virus in Dulbecco's Modified Eagle Medium was then added to the plated cells and compound at an approximate multiplicity of infection (MOI) of 0.01, resulting in a final volume of 200 μl per well. • 4. Virally-infected cells were incubated at 37 degrees Celsius, in a CO2 incubator, and harvested 72 h after infection. • 5. Viral infection was monitored by measuring luciferase expression from viral DNA in the infected cells using a luciferase reporter gene assay kit, as described by the manufacturer (Roche Molecular Biochemicals, Indianapolis, Ind.). Infected cell supernatants were removed and 50 μl of lysis buffer was added per well. After 15 minutes, 50 μl of freshly-reconstituted luciferase assay reagent was added per well. Luciferase activity was then quantified by measuring luminescence using a Wallac microbeta scintillation counter. • 6. The percent inhibition for each compound was calculated by quantifying the level of luciferase expression in cells infected in the presence of each compound as a percentage of that observed for cells infected in the absence of compound and subtracting such a determined value from 100. • 7. An EC50 provides a method for comparing the antiviral potency of the compounds of this disclosure. The effective concentration for fifty percent inhibition (EC50) was calculated with the Microsoft Excel Xlfit curve fitting software. For each compound, curves were generated from percent inhibition calculated at 10 different concentrations by using a four parameter logistic model (model 205). Table 3 is the key for the data in Table 4. Results

Compound | EC50 [nM]
COc1cnc(-n2cnc(C)n2)c2[nH]cc(C(=O)C(=O)N3CCN(c4nn[nH]c4-c4nccs4)CC3)c12 [G-25b] | < 500
C[C@@H]1CN(c2ncnc3cc(-c4ccccc4)sc23)CCN1C(=O)C(=O)c1c[nH]c2c(-n3ccnn3)ncc(F)c12 [D-27] | < 500
Nc1ccn(-c2ncc(F)c3c(C(=O)C(=O)N4CCN(c5nnnn5-c5ccccc5)CC4)c[nH]c23)n1 [B-4, 1-(7-(3-amino-1H-pyrazol-1-yl)-4-fluoro-1H-pyrrolo[2,3-c]pyridin-3-yl)-2-(4-(1-phenyl-1H-tetrazol-5-yl)piperazin-1-yl)ethane-1,2-dione] | < 500
COc1cnc(-n2cnc(C)n2)c2[nH]cc(C(=O)C(=O)N3CCN(c4nn[nH]c4-c4ccccn4)CC3)c12 [G-24b] | < 500
C[C@@H]1CN(c2nnnn2-c2ccccc2)CCN1C(=O)C(=O)c1c[nH]c2c(-n3ccnn3)ncc(F)c12 [A-14] | < 500
O=C(C(=O)N1CCN(c2ncccc2C(=O)N2CCOCC2)CC1)c1c[nH]c2c(-n3ccnn3)ncc(F)c12 [D-38] | > 500
O=C(NCCN1CCOCC1)c1cc(-c2ncc(F)c3c(C(=O)C(=O)N4CCN(c5nnnn5-c5ccccc5)CC4)c[nH]c23)n[nH]1 [B-42] | < 500
Nc1ccnn1-c1ncc(F)c2c(C(=O)C(=O)N3CCN(c4nnnn4-c4ccccc4)CC3)c[nH]c12 [B-5, 1-(7-(5-amino-1H-pyrazol-1-yl)-4-fluoro-1H-pyrrolo[2,3-c]pyridin-3-yl)-2-(4-(1-phenyl-1H-tetrazol-5-yl)piperazin-1-yl)ethane-1,2-dione] | < 500
O=C(C(=O)N1CCC(c2nccn2-c2ccccc2)CC1)c1c[nH]c2c(-n3ccnn3)ncc(F)c12 [G-18a] | < 500
COc1cnc(-n2cnc(C)n2)c2[nH]cc(C(=O)C(=O)N3CCN(c4cn(Cc5ccccn5)nc4-c4ccccc4)CC3)c12 [G-7a] | < 500
CC(C)Oc1nccnc1N1CCN(C(=O)C(=O)c2c[nH]c3c(-n4ccnn4)ncc(F)c23)CC1 [D-35] | < 500
COc1cnc(-n2cnc(C)n2)c2[nH]cc(C(=O)C(=O)N3CCN(c4nnnn4-c4cccc(N)n4)CC3)c12 [E-12b] | < 500
O=C(NCCN1CCCC1)c1cc(-c2ncc(F)c3c(C(=O)C(=O)N4CCN(c5nnnn5-c5ccccc5)CC4)c[nH]c23)n[nH]1 [B-40] | < 500
CCOC(=O)CCCCCC(=O)c1cccnc1N1CCN(C(=O)C(=O)c2c[nH]c3c(-n4ccnn4)ncc(F)c23)CC1 [D-43] | > 500
COc1cnc(-n2cnc(C)n2)c2[nH]cc(C(=O)C(=O)N3CCN(C4=NCCN4c4ccccc4)CC3)c12 [G-12b] | < 500
O=C(C(=O)N1CCC(c2nc(-c3cccnc3)no2)CC1)c1c[nH]c2c(-n3ccnn3)ncc(F)c12 [A-34] | > 500
O=C(NCCO)c1cc(-c2ncc(F)c3c(C(=O)C(=O)N4CCN(c5c[nH]nc5-c5ccccc5)CC4)c[nH]c23)n[nH]1 [B-52] | < 500
O=C(C(=O)N1CCN(c2nccnc2-c2ccccc2)CC1)c1c[nH]c2c(-n3ccnn3)ncc(F)c12 [A-17] | < 500
COc1cnc(-n2cnc(C)n2)c2[nH]cc(C(=O)C(=O)N3CCN(c4nnnn4-c4ccccc4)C[C@@H]3C)c12 [A-31] | < 500
O=C(C(=O)N1CCN(c2nsnc2-c2ccccc2)CC1)c1c[nH]c2c(-n3ccnn3)ncc(F)c12 [A-13] | < 500
CCOc1cccnc1N1CCN(C(=O)C(=O)c2c[nH]c3c(-n4ccnn4)ncc(F)c23)CC1 [A-62] | < 500
O=C(C(=O)N1CCN(c2nc(-c3ccccc3)ns2)CC1)c1c[nH]c2c(-n3ccnn3)ncc(F)c12 [A-28] | < 500
Cc1nc(N2CCN(C(=O)C(=O)c3c[nH]c4c(-n5ccnn5)ncc(F)c34)[C@H](C)C2)c2c(-c3ccccc3)csc2n1 [D-26] | > 500
O=C(C(=O)N1CCN(c2nnnn2-c2ccccc2)CC1)c1c[nH]c2c(-c3cc(C(=O)N4CCN(CCN5CCOCC5)CC4)[nH]n3)ncc(F)c12 [F-7] | < 500
COc1cnc(-n2ccnn2)c2[nH]cc(C(=O)C(=O)N3CCN(c4nnnn4-c4ccccc4)CC3)c12 [A-1] | < 500
COc1cnc(-c2cnc(-n3ccnc3)cn2)c2[nH]cc(C(=O)C(=O)N3CCN(c4nnnn4-c4ccccc4)CC3)c12 [G-2c] | < 500
O=C(NCCc1ccncc1)c1cc(-c2ncc(F)c3c(C(=O)C(=O)N4CCN(c5nnnn5-c5ccccc5)CC4)c[nH]c23)n[nH]1 [B-41] | < 500

Compound | EC50 [nM]
CN(C)C(=O)C(=O)Nc1ncc(F)c2c(C(=O)C(=O)N3CCN(c4nnnn4-c4ccccc4)CC3)c[nH]c12 [B-20, N^1-(4-fluoro-3-(2-oxo-2-(4-(1-phenyl-1H-tetrazol-5-yl)piperazin-1-yl)acetyl)-1H-pyrrolo[2,3-c]pyridin-7-yl)-N^2,N^2-dimethyloxalamide] | < 500
COc1cnc(-n2cnc(C)n2)c2[nH]cc(C(=O)C(=O)N3CCN(c4nccnc4OC(C)C)CC3)c12 [D-49] | < 500
O=C(C(=O)N1CCN(c2nnnn2-c2nccs2)CC1)c1c[nH]c2c(-n3ccnn3)ncc(F)c12 [E-4] | < 500
Cn1nc(-c2ncc(F)c3c(C(=O)C(=O)N4CCN(c5nnnn5-c5ccccc5)CC4)c[nH]c23)cc1C(=O)NCCO [B-44] | < 500
CCOC(=O)c1cc(-c2ncc(F)c3c(C(=O)C(=O)N4CCN(c5nnnn5-c5ccccc5)CC4)cn(C)c23)nn1C [B-60] | < 500
COc1cnc(-n2cnc(C)n2)c2[nH]cc(C(=O)C(=O)N3CCN(c4nnnn4-c4ccccn4)CC3)c12 [E-2] | < 500
O=C(C(=O)N1CCC(N2CCN=C2c2ccccc2)CC1)c1c[nH]c2c(-n3ccnn3)ncc(F)c12 [G-10a] | > 500
COc1cnc(-n2cnc(C)n2)c2[nH]cc(C(=O)C(=O)N3CCN(c4nnnn4-c4nccs4)CC3)c12 [E-5] | < 500
CSc1nc(N2CCN(C(=O)C(=O)c3c[nH]c4c(-n5ccnn5)ncc(F)c34)CC2)n(-c2ccccc2)n1 [G-26a] | < 500
Cc1cc(N2CCN(C(=O)C(=O)c3c[nH]c4c(-n5ccnn5)ncc(F)c34)CC2)n(-c2ccccc2)n1 [A-48] | < 500
O=C(C(=O)N1CCN(c2ccccc2C(F)(F)F)CC1)c1c[nH]c2c(-n3ccnn3)ncc(F)c12 [A-52] | > 500
COc1cnc(-c2cncc(F)c2)c2[nH]cc(C(=O)C(=O)N3CCN(c4nnnn4-c4ccccn4)CC3)c12 [H-1] | < 500
N#Cc1ncc(F)c2c(C(=O)C(=O)N3CCN(c4nnnn4-c4ccccc4)CC3)c[nH]c12 [B-46] | > 500
COc1cnc(-c2ccc(N3CCN(C(=O)NC(C)C)CC3)cc2)c2[nH]cc(C(=O)C(=O)N3CCN(c4nnnn4-c4ccccn4)CC3)c12 [B-87] | < 500
COc1cnc(-c2cc(C(=O)NCCc3ccncc3)[nH]n2)c2[nH]cc(C(=O)C(=O)N3CCN(c4nnnn4-c4ccccc4)CC3)c12 [B-12, 3-(4-methoxy-3-(2-oxo-2-(4-(1-phenyl-1H-tetrazol-5-yl)piperazin-1-yl)acetyl)-1H-pyrrolo[2,3-c]pyridin-7-yl)-N-(2-(pyridin-4-yl)ethyl)-1H-pyrazole-5-carboxamide.TFA] | < 500
COc1ncc(-c2ncc(OC)c3c(C(=O)C(=O)N4CCN(c5nnnn5-c5ccccn5)CC4)c[nH]c23)s1 [B-88] | < 500
COc1cnc(-n2cnc(C)n2)c2[nH]cc(C(=O)C(=O)N3CCN(c4nc(SC)nn4-c4ccccc4)CC3)c12 [G-26b] | < 500
CN(CCO)C(=O)c1cc(-c2ncc(F)c3c(C(=O)C(=O)N4CCN(c5nnnn5-c5ccccc5)CC4)c[nH]c23)n[nH]1 [B-36] | < 500
N#CCCCC(=O)c1cccnc1N1CCN(C(=O)C(=O)c2c[nH]c3c(-n4ccnn4)ncc(F)c23)CC1 [D-46] | > 500
C[C@H]1CN(C(=O)C(=O)c2c[nH]c3c(-n4ccnn4)ncc(F)c23)CCN1c1nnnn1-c1ccccc1 [A-61] | < 500
O=C(C(=O)N1CCN(c2ccnn2-c2ccccc2)CC1)c1c[nH]c2c(-n3ccnn3)ncc(F)c12 [G-9b] | < 500
NC(=O)c1ncc(F)c2c(C(=O)C(=O)N3CCN(c4nnnn4-c4ccccc4)CC3)c[nH]c12 [B-50] | < 500
COc1cnc(-n2cnc(C)n2)c2[nH]cc(C(=O)C(=O)N3CCN(c4nonc4-c4ccccc4)CC3)c12 [G-1a] | < 500
O=C(C(=O)N1CCN(c2nnnn2C2CCCCC2)CC1)c1c[nH]c2c(-n3ccnn3)ncc(F)c12 [E-8] | < 500
O=C(C(=O)N1CCN(c2cccc(C3CCCCC3)c2)CC1)c1c[nH]c2c(-n3ccnn3)ncc(F)c12 [A-41] | > 500
O=C(C(=O)N1CCN(c2cn(CCN3CCOCC3)nc2-c2ccccc2)CC1)c1c[nH]c2c(-n3ccnn3)ncc(F)c12 [G-16] | < 500
